In PubChem BioAssay (NCI):
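Step 1: Grow cells in 96-well plates. Step 2: Expose to compound for 48 hours at 5 concentrations. Step 3: Interpolate endpoints linearly; if unreached, use highest concentration. TGI marks complete inhibition of growth.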

Experiments:
Experiment in all cases: NCI tumour cell line growth inhibition, 48 h
A498 renal = test system: A498 renal
A549 NSCLC = test system: A549 NSCLC
CAKI-1 renal = test system: CAKI-1 renal
CCRF-CEM leukemia = test system: CCRF-CEM leukemia
COLO 205 colon = test system: COLO 205 colon
DLD-1 colon = test system: DLD-1 colon
DMS 114 small cell lung = test system: DMS 114 small cell lung
DMS 273 small cell lung = test system: DMS 273 small cell lung
EKVX NSCLC = test system: EKVX NSCLC
HCC-2998 colon = test system: HCC-2998 colon
HCT-116 colon = test system: HCT-116 colon
HCT-15 colon = test system: HCT-15 colon
HL-60(TB) leukemia = test system: HL-60(TB) leukemia
HOP-18 NSCLC = test system: HOP-18 NSCLC
HOP-62 NSCLC = test system: HOP-62 NSCLC
HOP-92 NSCLC = test system: HOP-92 NSCLC
HT29 colon = test system: HT29 colon
IGROV1 ovarian = test system: IGROV1 ovarian
K-562 leukemia = test system: K-562 leukemia
KM12 colon = test system: KM12 colon
KM20L2 colon = test system: KM20L2 colon
LOX IMVI melanoma = test system: LOX IMVI melanoma
M19-MEL melanoma = test system: M19-MEL melanoma
MALME-3M melanoma = test system: MALME-3M melanoma
MCF7 breast = test system: MCF7 breast
MOLT-4 leukemia = test system: MOLT-4 leukemia
NCI-H226 lung = test system: NCI-H226 lung
NCI-H23 lung = test system: NCI-H23 lung
NCI-H460 lung = test system: NCI-H460 lung
NCI-H522 lung = test system: NCI-H522 lung
NCI/ADR-RES ovarian = test system: NCI/ADR-RES ovarian
OVCAR-3 ovarian = test system: OVCAR-3 ovarian
OVCAR-4 ovarian = test system: OVCAR-4 ovarian
OVCAR-5 ovarian = test system: OVCAR-5 ovarian
OVCAR-8 ovarian = test system: OVCAR-8 ovarian
P388 leukemia = test system: P388 leukemia
P388/ADR leukemia = test system: P388/ADR leukemia
RPMI-8226 leukemia = test system: RPMI-8226 leukemia
RXF 393 renal = test system: RXF 393 renal
SF-268 CNS = test system: SF-268 CNS
SF-295 CNS = test system: SF-295 CNS
SF-539 CNS = test system: SF-539 CNS
SK-MEL-2 melanoma = test system: SK-MEL-2 melanoma
SK-MEL-28 melanoma = test system: SK-MEL-28 melanoma
SK-MEL-5 melanoma = test system: SK-MEL-5 melanoma
SK-OV-3 ovarian = test system: SK-OV-3 ovarian
SN12C renal = test system: SN12C renal
SN12K1 renal = test system: SN12K1 renal
SNB-19 CNS = test system: SNB-19 CNS
SNB-75 CNS = test system: SNB-75 CNS
SNB-78 CNS = test system: SNB-78 CNS
SW-620 colon = test system: SW-620 colon
U251 CNS = test system: U251 CNS
UACC-257 melanoma = test system: UACC-257 melanoma
UACC-62 melanoma = test system: UACC-62 melanoma
UO-31 renal = test system: UO-31 renal
XF 498 CNS = test system: XF 498 CNS
786-0 renal = test system: 786-0 renal
ACHN renal = test system: ACHN renal
LXFL 529 NSCLC = test system: LXFL 529 NSCLC
M14 melanoma = test system: M14 melanoma
SR leukemia = test system: SR leukemia
TK-10 renal = test system: TK-10 renal

With `COC(=O)c1ccc(N=NN(C)COc2ccc(Br)cc2)cc1` as the molecule, how does the TGI (A498 renal) read?
Its TGI is over 100 µM.

What about the TGI (A549 NSCLC) of the same molecule?
Its TGI is over 100 µM.

What about the TGI (CAKI-1 renal) of the same molecule?
Its TGI is over 100 µM.

What about the TGI (CCRF-CEM leukemia) of the same molecule?
Its TGI is over 100 µM.

What about the TGI (COLO 205 colon) of the same molecule?
Its TGI is over 100 µM.

What about the TGI (DLD-1 colon) of the same molecule?
The TGI was over 100 µM.

And the TGI (DMS 114 small cell lung)?
The TGI was over 100 µM.

And the TGI (DMS 273 small cell lung)?
The TGI was over 100 µM.

What about the TGI (EKVX NSCLC) of the same molecule?
Its TGI is over 100 µM.

And the TGI (HCC-2998 colon)?
The TGI was 87.7 µM.

What about the TGI (HCT-116 colon) of the same molecule?
The TGI was over 100 µM.

And the TGI (HCT-15 colon)?
The TGI was over 100 µM.

And the TGI (HL-60(TB) leukemia)?
The TGI was 59.7 µM.

What about the TGI (HOP-18 NSCLC) of the same molecule?
Its TGI is over 100 µM.

What about the TGI (HOP-62 NSCLC) of the same molecule?
Its TGI is over 100 µM.

And the TGI (HOP-92 NSCLC)?
Its TGI is over 100 µM.

What about the TGI (HT29 colon) of the same molecule?
Its TGI is over 100 µM.

And the TGI (IGROV1 ovarian)?
Its TGI is over 100 µM.

What about the TGI (K-562 leukemia) of the same molecule?
Its TGI is over 100 µM.

What about the TGI (KM12 colon) of the same molecule?
Its TGI is over 100 µM.

And the TGI (KM20L2 colon)?
Its TGI is over 100 µM.

And the TGI (LOX IMVI melanoma)?
Its TGI is over 100 µM.

What about the TGI (M19-MEL melanoma) of the same molecule?
Its TGI is over 100 µM.

What about the TGI (MALME-3M melanoma) of the same molecule?
The TGI was over 100 µM.

And the TGI (MCF7 breast)?
The TGI was over 100 µM.

What about the TGI (MOLT-4 leukemia) of the same molecule?
The TGI was over 92.6 µM.

And the TGI (NCI-H226 lung)?
Its TGI is over 100 µM.

What about the TGI (NCI-H23 lung) of the same molecule?
The TGI was over 100 µM.

What about the TGI (NCI-H460 lung) of the same molecule?
The TGI was over 100 µM.

And the TGI (NCI-H522 lung)?
The TGI was over 100 µM.

And the TGI (NCI/ADR-RES ovarian)?
Its TGI is over 100 µM.

And the TGI (OVCAR-3 ovarian)?
The TGI was over 100 µM.

What about the TGI (OVCAR-4 ovarian) of the same molecule?
The TGI was over 100 µM.

What about the TGI (OVCAR-5 ovarian) of the same molecule?
Its TGI is over 100 µM.

And the TGI (OVCAR-8 ovarian)?
Its TGI is over 100 µM.

What about the TGI (P388 leukemia) of the same molecule?
Its TGI is over 100 µM.

And the TGI (P388/ADR leukemia)?
The TGI was over 100 µM.

And the TGI (RPMI-8226 leukemia)?
Its TGI is over 79.8 µM.

And the TGI (RXF 393 renal)?
Its TGI is over 100 µM.

And the TGI (SF-268 CNS)?
Its TGI is over 100 µM.

And the TGI (SF-295 CNS)?
The TGI was over 100 µM.

What about the TGI (SF-539 CNS) of the same molecule?
The TGI was over 100 µM.

What about the TGI (SK-MEL-2 melanoma) of the same molecule?
The TGI was over 100 µM.

And the TGI (SK-MEL-28 melanoma)?
The TGI was over 100 µM.

What about the TGI (SK-MEL-5 melanoma) of the same molecule?
Its TGI is over 100 µM.

What about the TGI (SK-OV-3 ovarian) of the same molecule?
The TGI was over 100 µM.

And the TGI (SN12C renal)?
The TGI was over 100 µM.

And the TGI (SN12K1 renal)?
Its TGI is over 100 µM.

And the TGI (SNB-19 CNS)?
The TGI was over 100 µM.

And the TGI (SNB-75 CNS)?
Its TGI is over 100 µM.

And the TGI (SNB-78 CNS)?
Its TGI is over 100 µM.

And the TGI (SW-620 colon)?
The TGI was over 100 µM.

And the TGI (U251 CNS)?
The TGI was over 100 µM.

What about the TGI (UACC-257 melanoma) of the same molecule?
The TGI was over 100 µM.

What about the TGI (UACC-62 melanoma) of the same molecule?
The TGI was over 100 µM.

What about the TGI (UO-31 renal) of the same molecule?
The TGI was over 100 µM.

What about the TGI (XF 498 CNS) of the same molecule?
The TGI was over 100 µM.

What does the source list for `Cc1cccc(C(C)(C)C)c1NC(=O)CC1C(=O)Nc2ccccc2S1(=O)=O` (stereo not drawn)?
TGI (786-0 renal): 21.5 µM; TGI (A498 renal): 28.4 µM; TGI (A549 NSCLC): 27.9 µM; TGI (ACHN renal): 22.7 µM; TGI (CAKI-1 renal): 31.3 µM; TGI (CCRF-CEM leukemia): 7.8 µM; TGI (DLD-1 colon): 18.3 µM; TGI (DMS 273 small cell lung): 14.9 µM; TGI (EKVX NSCLC): 14.5 µM; TGI (HCC-2998 colon): 20.5 µM; TGI (HCT-116 colon): 22.3 µM; TGI (HCT-15 colon): 16.3 µM; TGI (HL-60(TB) leukemia): 10.7 µM; TGI (HOP-92 NSCLC): 25.3 µM; TGI (HT29 colon): 16.3 µM; TGI (IGROV1 ovarian): 21.8 µM; TGI (K-562 leukemia): 13 µM; TGI (KM20L2 colon): 22.3 µM; TGI (LOX IMVI melanoma): 18.6 µM; TGI (LXFL 529 NSCLC): 24.5 µM; TGI (M14 melanoma): 27.8 µM; TGI (M19-MEL melanoma): 24.8 µM; TGI (MALME-3M melanoma): 25.4 µM; TGI (MOLT-4 leukemia): 5.19 µM; TGI (NCI-H226 lung): 32.8 µM; TGI (NCI-H23 lung): 18.9 µM; TGI (NCI-H460 lung): 24.1 µM; TGI (OVCAR-3 ovarian): 18.1 µM; TGI (OVCAR-4 ovarian): 25.5 µM; TGI (OVCAR-5 ovarian): 27 µM; TGI (OVCAR-8 ovarian): 22.4 µM; TGI (RPMI-8226 leukemia): 17.2 µM; TGI (RXF 393 renal): 29 µM; TGI (SF-268 CNS): 25.5 µM; TGI (SF-295 CNS): 20 µM; TGI (SF-539 CNS): 10.2 µM; TGI (SK-MEL-2 melanoma): 21.2 µM; TGI (SK-MEL-28 melanoma): 30.3 µM; TGI (SK-MEL-5 melanoma): 24.9 µM; TGI (SN12C renal): 25.7 µM; TGI (SNB-19 CNS): 29.2 µM; TGI (SNB-75 CNS): 30.4 µM; TGI (SNB-78 CNS): 22.1 µM; TGI (SR leukemia): 7.13 µM; TGI (SW-620 colon): 22.1 µM; TGI (TK-10 renal): 42 µM; TGI (U251 CNS): 20.2 µM; TGI (UACC-257 melanoma): > 100 µM; TGI (UACC-62 melanoma): 18.6 µM; TGI (UO-31 renal): 23.3 µM; TGI (XF 498 CNS): 23.1 µM
